Results from patent publication US8796295B2, “Substituted benzamide analogs as mGluR5 negative allosteric modulators and methods of making and using the same” (priority 2009, dated 2014).
pIC50: −log10 of the molar value.

Target: rat mGluR5 (Rattus norvegicus (Rat), UniProt P31424)
Assay: cell-based
Description: The cells were loaded with a Ca2+-sensitive fluorescent dye (e.g., Fluo-4), and the plates were washed and placed in the FDSS instrument. Test compound was applied to cells 3 seconds after baseline readings were taken. Cells were incubated with the test compounds for 140 seconds and then stimulated with an EC20 concentration of an mGluR5 agonist (e.g., glutamate, 3,5-dihydroxyphenylglycine, or quisqualate); 60-80 seconds later an EC80 concentration of agonist was added and readings taken for an additional 40 seconds. Data were collected at 1 Hz. […] Concentration response curves were generated using a four parameter logistical equation.
The above described assay was operated in two modes. In the first mode (utilizing a triple add protocol), a range of concentrations of the present compounds were added to cells, followed by two single fixed concentrations of agonist (EC20 followed by EC80). If a compound acted as a potentiator, an EC50 value for potentiation of the EC20 response and a maximum extent of potentiation by the compound at this concentration of agonist was determined by non-linear curve fitting. If a compound acted as an antagonist, an IC50 value for antagonism of the EC80 response and a maximum extent of antagonism by the compound at this concentration of agonist was determined by non-linear curve fitting. In the second mode (utilizing a double add protocol), several fixed concentrations of the present compounds were added to various wells on a plate, followed by a range of concentrations of agonist for each concentration of present compound; the EC50 values for the agonist at each concentration of compound were determined by nonlinear curve fitting. A decrease in the EC50 value of the agonist with increasing concentrations of the present compounds (a leftward shift of the agonist concentration-response curve) is an indication of the degree of mGluR5 positive allosteric modulation at a given concentration of the present compound. An increase in the EC50 value of the agonist with increasing concentrations of the present compounds (a rightward shift of the agonist concentration response curve) is an indication of the degree of mGluR5 antagonism at a given concentration of the present compound. The second mode also indicates whether the present compounds also affect the maximum response to mGluR5 to agonists.
The mGluR5 activity was determined using the metabotropic glutamate receptor activity assays in human embryonic kidney cells as described herein, wherein the human embryonic kidney cells were transfected with rat mGluR5. The mGluR5 activity data for some compounds are shown as the average of at least three experiments with the standard error in these cases. If no error is indicated for the mGluR5 activity, the values given represent the results from a single experiment or the average of two experiments.

Chain of rat mGluR5 (P31424 21-1203): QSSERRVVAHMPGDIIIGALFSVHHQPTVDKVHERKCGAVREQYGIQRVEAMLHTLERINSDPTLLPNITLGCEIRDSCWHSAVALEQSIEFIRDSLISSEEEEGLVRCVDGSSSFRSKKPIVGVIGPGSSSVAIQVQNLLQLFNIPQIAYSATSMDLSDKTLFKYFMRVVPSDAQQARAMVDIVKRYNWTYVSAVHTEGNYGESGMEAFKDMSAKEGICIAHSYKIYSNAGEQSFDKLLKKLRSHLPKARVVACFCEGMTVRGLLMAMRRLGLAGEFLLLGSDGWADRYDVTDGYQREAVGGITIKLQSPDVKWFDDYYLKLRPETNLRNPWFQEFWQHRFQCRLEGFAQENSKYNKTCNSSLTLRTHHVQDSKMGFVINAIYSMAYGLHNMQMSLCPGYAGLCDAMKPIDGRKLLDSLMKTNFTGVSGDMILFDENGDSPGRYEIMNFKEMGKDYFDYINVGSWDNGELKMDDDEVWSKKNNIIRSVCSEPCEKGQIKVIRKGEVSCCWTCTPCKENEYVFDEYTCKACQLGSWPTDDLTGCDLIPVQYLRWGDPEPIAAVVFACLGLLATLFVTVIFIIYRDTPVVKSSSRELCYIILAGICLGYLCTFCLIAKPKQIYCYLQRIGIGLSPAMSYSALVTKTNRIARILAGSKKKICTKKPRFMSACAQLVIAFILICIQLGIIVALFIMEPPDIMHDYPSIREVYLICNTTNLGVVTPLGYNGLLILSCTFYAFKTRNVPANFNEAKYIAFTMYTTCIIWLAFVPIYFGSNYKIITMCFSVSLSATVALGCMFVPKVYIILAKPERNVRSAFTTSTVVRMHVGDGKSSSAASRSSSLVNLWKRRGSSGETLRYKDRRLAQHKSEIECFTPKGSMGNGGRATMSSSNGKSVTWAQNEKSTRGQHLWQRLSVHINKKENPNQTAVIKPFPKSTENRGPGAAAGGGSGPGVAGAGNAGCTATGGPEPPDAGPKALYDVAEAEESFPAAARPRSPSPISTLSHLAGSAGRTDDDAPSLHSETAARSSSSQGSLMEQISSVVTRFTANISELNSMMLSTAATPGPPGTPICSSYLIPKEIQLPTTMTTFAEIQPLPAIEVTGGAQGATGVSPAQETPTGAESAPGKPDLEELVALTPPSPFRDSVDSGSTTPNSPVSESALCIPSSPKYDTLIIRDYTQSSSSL

Question: How did the pIC50 turn out when O=C(Nc1ccc(F)cn1)c1cccc(Oc2cccnc2)c1 was run?
Answer: Its pIC50 is 5.13.

Question: With Cc1csc(NC(=O)c2cccc(Oc3cccnc3)c2)n1 as the molecule, how does the pIC50 read?
Answer: The pIC50 was 6.53.

Question: How did the pIC50 turn out when Cc1nsc(NC(=O)c2cccc(Oc3cccnc3)c2)n1 was run?
Answer: The pIC50 was < 4.52.

Question: With O=C(Nc1ccncn1)c1cccc(Oc2cccnc2)c1 as the molecule, how does the pIC50 read?
Answer: Its pIC50 is < 5.00.

Question: How did the pIC50 turn out when N#Cc1csc(NC(=O)c2cccc(Oc3cccnc3)c2)n1 was run?
Answer: Its pIC50 is 5.44.

Question: How did the pIC50 turn out when O=C(Nc1nc(C(F)(F)F)cs1)c1cccc(Oc2cccnc2)c1 was run?
Answer: The pIC50 was < 4.52.

Question: O=C(Nc1nccs1)c1cccc(Oc2cncnc2)c1 was tested. Which pIC50 did it give?
Answer: Its pIC50 is 5.34.

Question: With Cc1csc(NC(=O)c2cccc(Oc3cncnc3)c2)n1 as the molecule, how does the pIC50 read?
Answer: The pIC50 was 7.19.

Question: With Cc1csc(NC(=O)c2cc(Cl)cc(Oc3cccnc3)c2)n1 as the molecule, how does the pIC50 read?
Answer: Its pIC50 is 8.19.

Question: How did the pIC50 turn out when O=C(Nc1nccs1)c1cc(F)cc(Oc2cncnc2)c1 was run?
Answer: The pIC50 was 5.29.

Question: How did the pIC50 turn out when Cc1nc(NC(=O)c2cc(F)cc(Oc3cncnc3)c2)sc1F was run?
Answer: Its pIC50 is 7.28.

Question: O=C(Nc1ncc(F)cc1F)c1cc(Cl)cc(Oc2cncnc2)c1 was tested. Which pIC50 did it give?
Answer: The pIC50 was < 4.52.

Question: With O=C(Nc1ccc(Cl)cn1)c1cc(Cl)cc(Oc2cncnc2)c1 as the molecule, how does the pIC50 read?
Answer: Its pIC50 is 7.06.

Question: How did the pIC50 turn out when Cc1cc(NC(=O)c2cc(Cl)cc(Oc3cncnc3)c2)ncc1F was run?
Answer: The pIC50 was 5.56.

Question: O=C(Nc1ncccc1F)c1cc(Cl)cc(Oc2cncnc2)c1 was tested. Which pIC50 did it give?
Answer: Its pIC50 is < 5.00.

Question: With O=C(Nc1nc(C2CC2)cs1)c1cc(Cl)cc(Oc2cncnc2)c1 as the molecule, how does the pIC50 read?
Answer: Its pIC50 is 6.70.

Question: O=C(Nc1nc(C(F)F)cs1)c1cc(Cl)cc(Oc2cncnc2)c1 was tested. Which pIC50 did it give?
Answer: The pIC50 was 6.41.

Question: With CCc1ccnc(NC(=O)c2cc(Cl)cc(Oc3cncnc3)c2)c1 as the molecule, how does the pIC50 read?
Answer: Its pIC50 is 5.38.

Question: How did the pIC50 turn out when Cc1nc(NC(=O)c2cc(Cl)cc(Oc3cncnc3)c2)sc1Br was run?
Answer: Its pIC50 is 5.43.

Question: With O=C(Nc1ccc(F)c(CF)n1)c1cc(F)cc(Oc2cncnc2)c1 as the molecule, how does the pIC50 read?
Answer: Its pIC50 is 5.34.

Question: With COc1cccc(NC(=O)c2cc(F)cc(Oc3cncnc3)c2)n1 as the molecule, how does the pIC50 read?
Answer: Its pIC50 is 5.97.

Question: O=C(Nc1ccc(F)c(C(F)F)n1)c1cc(Cl)cc(Oc2cncnc2)c1 was tested. Which pIC50 did it give?
Answer: Its pIC50 is 6.11.

Question: How did the pIC50 turn out when Cc1nc(NC(=O)c2cc(F)cc(Oc3cncnc3)c2)ccc1F was run?
Answer: The pIC50 was 6.44.

Question: Cc1nc(NC(=O)c2cc(Cl)cc(Oc3cncnc3)c2)ccc1F was tested. Which pIC50 did it give?
Answer: The pIC50 was 7.27.

Question: Cc1nc(NC(=O)c2cc(F)cc(Oc3cncnc3)c2)sc1C(C)(C)C was tested. Which pIC50 did it give?
Answer: Its pIC50 is < 5.00.

Question: O=C(Nc1nc(C2CC2)cs1)c1cc(F)cc(Oc2cncnc2)c1 was tested. Which pIC50 did it give?
Answer: The pIC50 was 6.46.

Question: Cc1cncc(NC(=O)c2cc(Cl)cc(Oc3cncnc3)c2)c1 was tested. Which pIC50 did it give?
Answer: Its pIC50 is < 5.00.

Question: Cc1cncc(NC(=O)c2cc(F)cc(Oc3cncnc3)c2)c1 was tested. Which pIC50 did it give?
Answer: Its pIC50 is < 5.00.

Question: With CN(c1cccnc1)c1cccc(C(=O)Nc2nccs2)c1 as the molecule, how does the pIC50 read?
Answer: The pIC50 was 5.45.

Question: With CN(c1cccnc1)c1cc(F)cc(C(=O)Nc2nc(C#N)cs2)c1 as the molecule, how does the pIC50 read?
Answer: The pIC50 was 5.66.

Question: With CN(c1cccnc1)c1cc(F)cc(C(=O)Nc2nccs2)c1 as the molecule, how does the pIC50 read?
Answer: The pIC50 was 5.90.

Question: With Cc1csc(NC(=O)c2cc(F)cc(N(C)c3cccnc3)c2)n1 as the molecule, how does the pIC50 read?
Answer: The pIC50 was 6.75.

Question: CN(c1cccnc1)c1cc(Cl)cc(C(=O)Nc2nccs2)c1 was tested. Which pIC50 did it give?
Answer: The pIC50 was 6.19.

Question: With Cc1csc(NC(=O)c2cc(Cl)cc(N(C)c3cccnc3)c2)n1 as the molecule, how does the pIC50 read?
Answer: The pIC50 was 7.31.

Question: CN(c1cncnc1)c1cc(F)cc(C(=O)Nc2cc(Cl)ccn2)c1 was tested. Which pIC50 did it give?
Answer: The pIC50 was 6.97.

Question: CN(c1cncnc1)c1cc(Cl)cc(C(=O)Nc2cc(Cl)ccn2)c1 was tested. Which pIC50 did it give?
Answer: The pIC50 was 6.58.

Question: How did the pIC50 turn out when CN(c1cncnc1)c1cc(F)cc(C(=O)Nc2ccc(Cl)cn2)c1 was run?
Answer: Its pIC50 is < 4.52.

Question: With CN(c1cncnc1)c1cc(Cl)cc(C(=O)Nc2ccc(Cl)cn2)c1 as the molecule, how does the pIC50 read?
Answer: Its pIC50 is 6.03.

Question: Cc1cncc(NC(=O)c2cc(F)cc(N(C)c3cncnc3)c2)c1 was tested. Which pIC50 did it give?
Answer: The pIC50 was < 5.00.

Question: With Cc1cncc(NC(=O)c2cc(Cl)cc(N(C)c3cncnc3)c2)c1 as the molecule, how does the pIC50 read?
Answer: Its pIC50 is < 5.00.

Question: Cc1cc(Oc2cncnc2)cc(C(=O)Nc2ccc(F)cn2)c1 was tested. Which pIC50 did it give?
Answer: Its pIC50 is 7.66.
